# Test results reported in ChEMBL document CHEMBL1201862, “PubChem BioAssay data set” (2004).
# Activity calls are given as the source filed them.
# Tests used:
# Cysteine protease ATG4B = target: T1, Cysteine protease ATG4B (Homo sapiens, UniProt Q9Y4P1); assay type: functional;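 also: Fluorescence-based dose-response confirmation assay measuring inhibition of ATG4B activity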
# T1 sequence (Q9Y4P1 whole entry): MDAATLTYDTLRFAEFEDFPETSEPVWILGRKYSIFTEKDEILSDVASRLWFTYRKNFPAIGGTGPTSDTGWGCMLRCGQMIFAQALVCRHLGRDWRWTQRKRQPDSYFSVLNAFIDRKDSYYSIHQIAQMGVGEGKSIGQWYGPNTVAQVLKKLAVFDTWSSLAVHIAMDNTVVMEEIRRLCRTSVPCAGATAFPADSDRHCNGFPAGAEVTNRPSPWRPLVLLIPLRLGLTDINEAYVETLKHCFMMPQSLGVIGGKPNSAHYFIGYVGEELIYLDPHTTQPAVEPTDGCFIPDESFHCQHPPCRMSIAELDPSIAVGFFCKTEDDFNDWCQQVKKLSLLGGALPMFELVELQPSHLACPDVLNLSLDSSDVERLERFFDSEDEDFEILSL
# Phospholipase A2 = Phospholipase A2 (Homo sapiens, UniProt P04054); assay type: functional;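 also: confirmatory dose-response counterscreen on phospholipase A2, testing hits that came from an ultra-high-throughput screen for ATG4B inhibitors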
# [1] = inhibitors of intracellular T. cruzi replication, confirmation, NIH3T3 host cells, beta-gal luminescence (AID 2044); assay type: functional, cell-based;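 also: intracellular parasites grown in NIH/3T3 mouse fibroblasts as host cells; luminescent beta-galactosidase reporter signal from transgenic T. cruzi replicating inside host cells; inhibitors lower the luminescence signal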
# [2] = cytotoxicity toward NIH3T3 fibroblasts, dose response, counter-screen, cell-based, ATP luminescence, mouse fibroblasts (AID 2010); assay type: functional;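 also: cells exposed to compound for about 90 hours before reading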
# [3] = target: DNA dC->dU-editing enzyme APOBEC-3G (Homo sapiens, UniProt Q9HC16); test: Dose Response confirmation of small molecule APOBEC3G DNA Deaminase Inhibitors via a fluorescence-based single-stranded DNA deaminase assay. [Related pubchem assays (depositor defined):AID493012, AID493028]; assay type: functional
# [4] = Shn3 3'UTR reporter inhibitors, dose response, cell-based, Clone20 osteoblasts, firefly luciferase, cherry-picked (AID 624132); assay type: functional;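 also: firefly luciferase luminescence from reporter carrying the Shn3 3'UTR in osteoblasts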
# [5] = HepG2 cell cytotoxicity, dose response, cytotoxicity control for Shn3 inhibitor project, CellTiter-Glo, cherry-picked (AID 624134); assay type: functional, cell-based
# [6] = control 3'UTR Renilla luciferase suppression, dose response, counter-screen for Shn3 inhibitor project, cell-based, Clone20-Shn3RL, cherry-picked (AID 624133); assay type: functional
# [7] = inhibitors of HIV Env-driven cell fusion, dose response, cherry-pick (AID 652057); assay type: functional, cell-based
# [8] = ZM109 Env clade C HIV-1 fusion inhibitors, dose response, HeLa effector, CEM target cells, luciferase, cherry-pick (AID 652058); assay type: functional, cell-based
# [9] = inhibitors of clade B AD8 Env fusion, dose response, cell-based, cherry-pick (AID 652062); assay type: functional;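 also: luciferase signal from cell-cell fusion driven by HIV-1 clade B AD8 Env; potency is for inhibitors of fusion seen as a drop in luminescence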
# [10] = target: Glyceraldehyde-3-phosphate dehydrogenase (Homo sapiens, UniProt P04406)
# [11] = target: T2, Alkaline phosphatase, tissue-nonspecific isozyme (Homo sapiens, UniProt P05186); test: human TNAP enzyme inhibitors, SAR follow-up, biochemical, luminescent, dose response (AID 1056)
# T2 sequence (P05186 whole entry): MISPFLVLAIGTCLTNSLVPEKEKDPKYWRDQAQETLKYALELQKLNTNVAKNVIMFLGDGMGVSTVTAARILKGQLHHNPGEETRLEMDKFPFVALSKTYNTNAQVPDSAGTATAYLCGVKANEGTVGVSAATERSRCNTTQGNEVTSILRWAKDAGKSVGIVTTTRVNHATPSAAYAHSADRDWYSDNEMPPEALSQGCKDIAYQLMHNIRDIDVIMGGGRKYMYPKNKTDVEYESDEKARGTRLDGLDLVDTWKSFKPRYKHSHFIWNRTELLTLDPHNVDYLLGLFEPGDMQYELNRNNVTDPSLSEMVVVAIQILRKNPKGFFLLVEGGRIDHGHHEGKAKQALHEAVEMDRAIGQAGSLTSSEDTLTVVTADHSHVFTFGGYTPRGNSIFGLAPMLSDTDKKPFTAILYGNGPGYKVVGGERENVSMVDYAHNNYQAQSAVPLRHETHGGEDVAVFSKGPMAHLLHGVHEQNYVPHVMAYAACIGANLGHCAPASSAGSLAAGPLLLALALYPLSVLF
# [12] = target: T3, Corticotropin-releasing factor receptor 2/Corticotropin-releasing factor-binding protein (Homo sapiens, UniProt P24387+Q13324); test: Dose Response confirmation of uHTS hits for small molecule antagonists of the CRF-binding protein and CRF-R2 receptor complex.; assay type: functional; conditions: read-out: IC50_Mean
# T3 sequence (Q13324 whole entry): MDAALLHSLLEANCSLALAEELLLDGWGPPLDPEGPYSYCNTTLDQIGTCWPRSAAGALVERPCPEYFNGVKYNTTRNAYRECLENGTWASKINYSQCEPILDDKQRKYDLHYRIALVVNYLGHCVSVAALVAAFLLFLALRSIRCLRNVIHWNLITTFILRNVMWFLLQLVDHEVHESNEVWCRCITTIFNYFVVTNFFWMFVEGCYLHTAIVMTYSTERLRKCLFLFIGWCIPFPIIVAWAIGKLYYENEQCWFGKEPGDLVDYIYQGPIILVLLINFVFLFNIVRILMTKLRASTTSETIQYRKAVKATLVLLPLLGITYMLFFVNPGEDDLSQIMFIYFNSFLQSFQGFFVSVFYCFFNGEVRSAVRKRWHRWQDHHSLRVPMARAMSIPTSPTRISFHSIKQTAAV
# T3 sequence (P24387 whole entry): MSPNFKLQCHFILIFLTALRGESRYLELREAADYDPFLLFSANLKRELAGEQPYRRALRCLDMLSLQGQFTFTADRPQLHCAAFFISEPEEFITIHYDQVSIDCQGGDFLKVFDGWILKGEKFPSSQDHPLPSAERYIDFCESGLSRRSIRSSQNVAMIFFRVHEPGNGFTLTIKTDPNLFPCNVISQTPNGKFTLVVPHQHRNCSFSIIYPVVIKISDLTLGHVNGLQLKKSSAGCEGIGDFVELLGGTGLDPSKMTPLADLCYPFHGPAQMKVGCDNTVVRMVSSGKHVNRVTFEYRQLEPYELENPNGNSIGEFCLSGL
# [13] = target: T3, Corticotropin-releasing factor receptor 2/Corticotropin-releasing factor-binding protein; test: activators of CRF receptor 2 with binding protein – uHTS hits, confirmation (AID 602473); assay type: functional; conditions: read-out: EC50_Mean
# [14] = CRF-BP/CRF-R2 complex antagonists, dose response, cell-based, uHTS hits, 384-well (AID 651639); assay type: functional, Homo sapiens; conditions: read-out: IC50_Mean
# cells = assay type: functional
# Estrogen receptor beta = Estrogen receptor beta (Homo sapiens, UniProt Q92731);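 also: recombinant ER-beta bound to coactivator SRC1 peptide in presence of estradiol agonist; inhibitors block coactivator peptide binding and lower the FRET signal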
# [15] = target: T4, Heat shock factor protein 1 (Mus musculus, UniProt P38532); test: HSF1 potentiators in luciferase reporter cells, confirmation, cell-based, NIH3T3, luminescence, dose retest (AID 435004); assay type: functional;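 also: stress induced by proteasome inhibitor MG132 added 30 min after compound; luciferase reporter driven by HSF1 response element in NIH3T3 cells; actives raise luminescence as potentiators of the MG132 stress response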
# T4 sequence (P38532 whole entry): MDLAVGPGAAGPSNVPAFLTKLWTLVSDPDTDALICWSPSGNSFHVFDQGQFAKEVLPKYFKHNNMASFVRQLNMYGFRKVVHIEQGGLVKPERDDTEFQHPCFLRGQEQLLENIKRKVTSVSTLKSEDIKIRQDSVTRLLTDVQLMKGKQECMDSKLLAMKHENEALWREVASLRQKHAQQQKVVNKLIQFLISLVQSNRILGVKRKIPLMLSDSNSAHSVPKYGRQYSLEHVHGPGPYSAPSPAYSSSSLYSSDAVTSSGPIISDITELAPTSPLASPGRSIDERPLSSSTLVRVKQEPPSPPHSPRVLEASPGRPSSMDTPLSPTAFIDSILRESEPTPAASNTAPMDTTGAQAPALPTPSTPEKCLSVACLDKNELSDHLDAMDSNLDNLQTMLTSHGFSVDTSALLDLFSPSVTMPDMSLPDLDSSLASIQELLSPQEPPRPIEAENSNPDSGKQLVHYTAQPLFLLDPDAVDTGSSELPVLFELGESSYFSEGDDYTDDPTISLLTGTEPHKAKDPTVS
# [16] = target: Induced myeloid leukemia cell differentiation protein Mcl-1 (Homo sapiens, UniProt Q07820); assay type: functional
# [17] = intracellular Trypanosoma cruzi inhibitors in host cells – cell-based, plate reader, cherry-pick samples, set 3, dose response (AID 651818); assay type: functional;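 also: compounds incubated with infected cells for about four days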
# [18] = miR-122 activators in hepatoma reporter cells, dose response, cell-based, Huh7 psiCHECK-miR122, Renilla luciferase, cherry-picked (AID 651956); assay type: functional;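 also: huh7 hepatoma cells stably carrying a psiCHECK-2 miR-122 sensor plasmid; renilla luciferase signal reporting endogenous miR-122 activity after 48 h compound exposure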
# [19] = P. falciparum 3D7-ScDHODH growth inhibitors, dose response, SYBR Green, dry powder samples (AID 1159570); assay type: functional, cell-based;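 also: parasite growth measured after 72 hours of compound exposure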
# [20] = P. falciparum Dd2 growth inhibitors, dose response, SYBR Green, cherry-picked samples (AID 1159567); assay type: functional, cell-based
# [21] = P. falciparum Dd2 growth inhibitors, dose response, SYBR Green, dry powder samples (AID 1159566); assay type: functional, cell-based;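 also: potency for growth inhibition with lower SYBR green DNA signal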
# [22] = P. falciparum ATP4 D1247Y mutant growth inhibitors, dose response, NITD609-resistant line, SYBR Green, dry powder (AID 1159571); assay type: functional, cell-based;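 also: parasites synchronized at ring stage by sorbitol before testing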
# [23] = HepG2 cell cytotoxicity, dose response, cytotoxicity control, plate reader, dry powder samples (AID 1159569); assay type: functional, cell-based;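 also: inhibitor potency with signal falling toward the positive control level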
# Sequence of Estrogen receptor beta (Q92731 whole entry): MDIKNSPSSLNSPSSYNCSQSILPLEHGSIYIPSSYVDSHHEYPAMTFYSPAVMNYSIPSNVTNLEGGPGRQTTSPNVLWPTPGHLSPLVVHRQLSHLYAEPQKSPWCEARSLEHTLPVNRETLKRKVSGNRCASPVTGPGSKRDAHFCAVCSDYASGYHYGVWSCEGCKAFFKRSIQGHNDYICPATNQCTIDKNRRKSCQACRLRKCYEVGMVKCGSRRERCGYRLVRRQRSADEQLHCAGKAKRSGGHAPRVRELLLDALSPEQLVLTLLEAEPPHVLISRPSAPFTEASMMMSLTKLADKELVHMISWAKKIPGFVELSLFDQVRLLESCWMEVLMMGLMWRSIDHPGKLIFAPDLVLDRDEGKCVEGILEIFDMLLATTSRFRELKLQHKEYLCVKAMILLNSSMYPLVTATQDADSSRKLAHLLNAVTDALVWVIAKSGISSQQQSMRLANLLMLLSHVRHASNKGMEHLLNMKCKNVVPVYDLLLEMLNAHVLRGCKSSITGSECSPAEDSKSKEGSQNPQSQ
# Sequence of Phospholipase A2 (P04054 whole entry): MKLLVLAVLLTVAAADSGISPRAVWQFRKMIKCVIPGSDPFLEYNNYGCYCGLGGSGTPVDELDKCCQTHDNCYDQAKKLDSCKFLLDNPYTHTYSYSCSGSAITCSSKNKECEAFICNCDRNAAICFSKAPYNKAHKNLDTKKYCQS
# Sequence of DNA dC->dU-editing enzyme APOBEC-3G (Q9HC16 whole entry): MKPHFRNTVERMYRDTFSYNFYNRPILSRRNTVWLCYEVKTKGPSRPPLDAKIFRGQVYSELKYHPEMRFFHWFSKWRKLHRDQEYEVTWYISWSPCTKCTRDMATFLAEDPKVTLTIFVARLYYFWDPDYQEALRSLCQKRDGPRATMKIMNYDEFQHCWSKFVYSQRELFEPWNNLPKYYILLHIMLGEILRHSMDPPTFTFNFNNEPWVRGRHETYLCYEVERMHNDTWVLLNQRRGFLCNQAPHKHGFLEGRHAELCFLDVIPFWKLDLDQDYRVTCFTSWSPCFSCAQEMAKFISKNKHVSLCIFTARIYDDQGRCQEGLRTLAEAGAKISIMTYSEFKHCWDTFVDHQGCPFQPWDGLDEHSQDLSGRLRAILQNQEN
# Sequence of Induced myeloid leukemia cell differentiation protein Mcl-1 (Q07820 whole entry): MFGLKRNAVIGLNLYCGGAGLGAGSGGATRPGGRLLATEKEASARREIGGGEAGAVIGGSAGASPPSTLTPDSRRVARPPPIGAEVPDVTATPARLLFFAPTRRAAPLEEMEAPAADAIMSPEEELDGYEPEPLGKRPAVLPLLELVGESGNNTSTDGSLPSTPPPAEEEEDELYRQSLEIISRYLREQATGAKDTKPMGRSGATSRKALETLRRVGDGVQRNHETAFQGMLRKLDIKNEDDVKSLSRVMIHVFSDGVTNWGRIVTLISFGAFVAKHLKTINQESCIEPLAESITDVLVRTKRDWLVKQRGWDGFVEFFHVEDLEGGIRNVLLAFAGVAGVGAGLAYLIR
# Sequence of Glyceraldehyde-3-phosphate dehydrogenase (P04406 whole entry): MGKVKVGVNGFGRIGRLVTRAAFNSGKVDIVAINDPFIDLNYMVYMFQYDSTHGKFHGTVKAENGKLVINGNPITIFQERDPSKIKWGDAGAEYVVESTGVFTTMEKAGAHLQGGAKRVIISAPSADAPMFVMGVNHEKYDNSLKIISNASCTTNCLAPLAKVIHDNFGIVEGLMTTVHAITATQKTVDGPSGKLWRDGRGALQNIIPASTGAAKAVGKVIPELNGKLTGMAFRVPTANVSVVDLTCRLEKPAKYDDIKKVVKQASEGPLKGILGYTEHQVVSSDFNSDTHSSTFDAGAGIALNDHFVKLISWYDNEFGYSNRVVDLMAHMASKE
smiles,measurement,setting,value
O=C(COc1ccccc1-c1ccccc1)NCc1cccc(Cl)c1,IC50,Cysteine protease ATG4B,11.4 µM (active)
same,IC50,Phospholipase A2,7.72 µM (active)
CCOc1ccc(NCc2ccccc2OCc2cccc(F)c2)cc1,EC50,[1],1.29 µM (active)
same,EC50,[2],> 60 µM (not active)
same,IC50,Cysteine protease ATG4B,8.88 µM (active)
same,IC50,Phospholipase A2,5.3 µM (active)
O=[N+]([O-])c1ccc(N2CCN(C(=S)c3cccc([N+](=O)[O-])c3)CC2)cc1,IC50,[3],47.7 µM (active)
CSc1ccc(CN(C)C(=O)c2cccc(S(=O)(=O)N3CCN(Cc4ccccc4)CC3)c2)cc1,AC50,[4],2.89 µM (active)
same,AC50,[5],64.6 µM (active)
same,AC50,[6],14.3 µM (active)
same,AC50,[7],10.3 µM (active)
same,AC50,[8],10.3 µM (active)
same,AC50,[9],8.39 µM (active)
COc1ccc(S(=O)(=O)Nc2ccc3ccccc3c2)cc1,IC50,[10],> 100 µM (not active)
same,IC50,[11],> 100 µM (inactive)
O=C(Oc1c(Br)cc([N+](=O)[O-])cc1Br)c1cccnc1,IC50,[12],9.69 µM (active)
same,EC50,[13],> 53 µM (inactive)
same,IC50,[14],> 20 µM (inactive)
Cn1c(COc2ccccc2)nnc1SCC(=O)c1cccc([N+](=O)[O-])c1,IC50,[12],23.4 µM (active)
same,EC50,[13],> 53 µM (inactive)
same,IC50,[14],7.77 µM (active)
CCCCNC(=O)COC(=O)c1cc(F)c(F)cc1Cl,IC50,cells,8.58 µM (active)
Cc1ccccc1Cn1ccc(NC(=O)c2cc3ncc(Br)cn3n2)n1,IC50,[12],< 0.368 µM (active)
same,EC50,[13],> 53 µM (inactive)
same,IC50,[14],2.65 µM (active)
O=C(CNC(=O)c1ccco1)OCc1ccc(Cl)cc1,IC50,Estrogen receptor beta,> 50 µM (not active)
CCn1cc(SCC(=O)NCc2ccc3c(c2)OCO3)c2ccccc21,IC50,Estrogen receptor beta,> 50 µM (not active)
NS(=O)(=O)c1ccc(CCNC2CC(=O)N(CCc3ccccc3)C2=O)cc1 (stereo not given),IC50,Estrogen receptor beta,> 50 µM (not active)
Cc1ccc2cccc(Oc3ncnc4scc(-c5ccccc5)c34)c2n1,IC50,[12],7.86 µM (active)
same,EC50,[13],> 53 µM (inactive)
same,IC50,[14],9.74 µM (active)
O=C1Nc2cc(Cl)c(Cl)cc2N(O)N1c1cc(Cl)cc(Cl)c1,IC50,Cysteine protease ATG4B,14.5 µM (active)
same,IC50,Phospholipase A2,13.7 µM (active)
COc1ccc(C(=O)COC(=O)c2cccnc2SC)cc1,EC50,[15],> 260 µM (inactive)
same,IC50,[12],1.85 µM (active)
same,EC50,[13],> 53 µM (inactive)
same,IC50,[14],3.77 µM (active)
O=C(CN1C(=O)/C(=C2\SC(=S)N(C3CCS(=O)(=O)C3)C2=O)c2ccccc21)Nc1ccccc1 (stereo not given),IC50,[16],5.8 µM (active)
COc1ccc(Cc2nnc(S)n2C)cc1Br,IC50,[3],18.9 µM (active)
CCOC(=O)c1c(NC(=O)c2cc(-c3ccc(O)cc3)on2)sc(C(C)=O)c1C,IC50,[16],3.69 µM (active)
N#Cc1ccc(CN(Nc2ccccc2)c2ccccc2)cc1,IC50,[12],14.3 µM (active)
same,EC50,[13],> 53 µM (inactive)
same,IC50,[14],10 µM (active)
C[C@H](CO)N1C[C@H](C)[C@H](CN(C)Cc2ccc(C(=O)Nc3ccccc3N)cc2)Oc2ccc(NC(=O)C3CC3)cc2CC1=O,AC50,[17],2.66 µM (active)
C[C@H](CO)N1C[C@H](C)[C@@H](CN(C)C(=O)C2CCOCC2)Oc2cc(C#Cc3ccncc3)ccc2S1(=O)=O,AC50,[18],3.77 µM (active)
Cc1ccc(S(=O)(=O)N(C)C[C@H]2Oc3c(NC(=O)c4nc5ccccc5s4)cccc3C(=O)N([C@H](C)CO)C[C@@H]2C)cc1,AC50,[17],0.839 µM (active)
COc1ccc(NC(=O)Nc2cccc3c2O[C@@H](CN(C)Cc2ccc(C(=O)O)cc2)[C@@H](C)CN([C@@H](C)CO)C3=O)cc1,AC50,[17],20 µM (inactive)
CCCNC(=O)C[C@@H]1CC[C@@H]2[C@H](COc3ccc(NS(=O)(=O)c4ccccc4C)cc3C(=O)N2C)O1,AC50,[18],56 µM (active)
C[C@@H]1CN([C@@H](C)CO)S(=O)(=O)c2ccc(C#CC3CC3)cc2O[C@@H]1CN(C)C(=O)c1cccc(F)c1,AC50,[18],8.3 µM (active)
C[C@@H]1CN([C@H](C)CO)C(=O)Cc2cc(NC(=O)Nc3ccc(C(F)(F)F)cc3)ccc2O[C@@H]1CN(C)S(=O)(=O)c1ccccc1,AC50,[17],4.23 µM (active)
C[C@@H]1CCCCO[C@@H](CN(C)Cc2ccc(Cl)c(Cl)c2)[C@@H](C)CN([C@H](C)CO)C(=O)c2cc(NS(=O)(=O)c3ccccc3)ccc2O1,AC50,[17],5.37 µM (active)
COc1ccccc1S(=O)(=O)N(C)C[C@@H]1OCc2ccccc2-c2c(n(C)c3ccccc23)C(=O)N([C@@H](C)CO)C[C@@H]1C,AC50,[19],0.507 µM (active)
same,AC50,[20],2.19 µM (active)
same,AC50,[21],0.445 µM (active)
same,AC50,[22],0.44 µM (active)
N#Cc1cccc(-c2ccc3c(c2)[C@H]2[C@H](CCN2Cc2ccncc2)[C@@H](CO)N3)c1,AC50,[19],1.57 µM (active)
same,AC50,[23],> 100 µM (inactive)
same,AC50,[20],1.99 µM (active)
same,AC50,[21],1.4 µM (active)
same,AC50,[22],3.28 µM (active)
